Experimental data taken from US8367677B2, “Non-glycosylated/non-glycosidic/non-peptidic small molecule PSGL-1 mimetics for the treatment of inflammatory disorders” (Revotar Biopharmaceuticals AG, priority 2004, dated 2013).

Experiments:
[1] = Parallel Artificial Membrane Permeation Assay (PAMPA); format: in vitro ADME; settings: 16 hours, room temperature; for [% flux] at pH 4.0: pH 4.0, 500 μM donor; for [% flux] at pH 7.4: pH 7.4, 500 μM donor
Method: The test compounds are dissolved at 10 mM in DMSO and diluted to 500 μM with PBS pH 7.4 or pH 4.0, respectively resulting in ‘donor solutions’. For use as an artificial membrane, a 1% solution of lecithin (w/v) in dodecane is prepared and sonicated. Then, 5 μl of the lecithin/dodecane mixture are carefully pipetted into each donor plate well. Immediately after the application of the artificial membrane, 150 μl of drug containing donor solutions are added to each well of the donor plate. Each well of the acceptor plate is filled with 300 μl buffer (PBS with 5% DMSO at pH 7.4 or pH 4.0, respectively) and the drug-filled donor plate is placed onto the acceptor plate, making sure the membrane is in contact with the buffer. After replacement of the lid, the assembled plates are transferred into a sealed box equipped with a moistured towel and incubated at room temperature for 16 hours. Then, the wells of the acceptor plate are analyzed with LC/MS.

[2] = target: T1, human P-Selectin-IgG-chimera (Homo sapiens, UniProt P16109); assay: Sialyl Lewis x Tyrosine Sulfate Assay (sLex TSA), P-selectin; format: binding; settings: for P-Selectin [% Inhib.] / inhibition at 100 µM: compound at 100 μM; for inhibition at 100 µM: read-out: P-Selectin [% Inhib.]
T1 sequence (P16109 42-771 limits assumed): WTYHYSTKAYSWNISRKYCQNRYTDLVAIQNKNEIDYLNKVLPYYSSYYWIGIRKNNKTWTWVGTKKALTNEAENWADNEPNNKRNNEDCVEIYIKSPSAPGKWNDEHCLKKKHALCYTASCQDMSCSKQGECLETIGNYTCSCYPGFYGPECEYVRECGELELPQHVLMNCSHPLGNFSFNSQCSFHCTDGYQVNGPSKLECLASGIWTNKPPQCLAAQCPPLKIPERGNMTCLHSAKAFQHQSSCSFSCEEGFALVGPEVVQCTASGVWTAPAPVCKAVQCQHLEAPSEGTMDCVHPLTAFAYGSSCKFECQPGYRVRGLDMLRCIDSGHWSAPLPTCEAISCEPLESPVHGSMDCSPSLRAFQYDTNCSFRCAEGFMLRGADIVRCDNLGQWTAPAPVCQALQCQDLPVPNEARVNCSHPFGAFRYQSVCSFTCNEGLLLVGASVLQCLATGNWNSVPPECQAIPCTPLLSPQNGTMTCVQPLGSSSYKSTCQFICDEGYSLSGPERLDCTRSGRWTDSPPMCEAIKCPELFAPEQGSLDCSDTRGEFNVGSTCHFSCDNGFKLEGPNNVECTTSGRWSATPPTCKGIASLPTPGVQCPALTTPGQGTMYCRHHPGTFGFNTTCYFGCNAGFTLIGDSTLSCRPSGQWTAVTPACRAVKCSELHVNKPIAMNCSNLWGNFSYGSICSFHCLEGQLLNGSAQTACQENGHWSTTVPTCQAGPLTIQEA
Method: (§1) Compounds of the present invention are assayed on a molecular level for their ability to inhibit the binding of P-, L-, or E-selectin chimeric molecules to sLe^x and tyrosinesulfate residues linked to a polymeric matrix as a PSGL-1 substitute.
(§2) Microtiter plates are coated overnight in carbonate buffer pH9.6 with goat anti human Fc mAB (10 μg/ml). After washing in assay buffer (25 mM 4-(2-hydroxyethyl)-1-piperazineethanesulfonic acid (HEPES), 150 mM NaCl, 1 mM CaCl2 pH7.4) and blocking (3% bovine serum albumin (BSA) in assay buffer) plates are incubated for 2 h at 37° C. with human P-Selectin-IgG-chimera (0.61 nM respectively 150 ng/mL) or human L-Selectin-IgG-chimera (0.61 nM respectively 89 ng/mL) or human E-Selectin-IgG-chimera (0.61 nM respectively 131 ng/mL). 5 μl of sLe^x-tyrosine sulfate polyacrylamide (1 mg/ml) carrying 15% sLe^x, 10% Tyrosine-sulfate and 5% biotin is complexed with 20 μl Streptavidin-Peroxidase solution (1 mg/ml) and 25 μl assay buffer without CaCl2. For use in the assay, the ligand complex is diluted 1:10000 in assay buffer and further diluted 1:1 with varying amounts of compounds in assay buffer incl. 2% DMSO. This mixture is added to the wells precoated with E- or P-selectin. After incubation for 2 h at 37° C., wells are washed for six times with in assay buffer incl. 0.005% Polyoxyethylenesorbitan monolaurate (TWEEN 20), developed for 10-15 min with 20 μl 3,3′,5,5′-tetramethylbenzidine (TMB)/H2O2 substrate solution and stopped with 20 μl […]. Bound sLe^x-Tyrosine sulfate ligand complex is determined by measuring optical density at 450 nm vs. 620 nm in a Fusion alpha-FP reader (sold from Packard Bioscience, Dreieich, Germany).

[3] = test system: human E-selectin-IgG chimera; assay: Flow chamber assay, cell adhesion and rolling under flow conditions, E-selectin; format: cell-based; settings: 125 μM compound, flow shear 1 dyne/cm^2
Method: (§3) To assess the capability of compounds to inhibit cell binding under dynamic conditions resembling the flow in a blood vessel, flow chamber assays addressing/testing binding of HL-60 cells/various cell lines to P-selectin, L-selectin and E-selectin chimeric molecules are performed.
(§4) Cell attachment under flow conditions are determined using a parallel flow chamber system. A 35 mm polystyrene culture dish is coated for 1 hour at room temperature with coating buffer (50 mM tris-(hydroxymethyl)aminomethane buffer (Tris), 150 mM NaCl, 2 mM CaCl2; pH 7,4) containing human E- or P-selectin-IgG chimera at concentrations of 2.5 μg/ml or 10 μg/ml, respectively. After removal of the coating solution non specific binding sites are blocked for an additional hour with 1% BSA in coating buffer at room temperature. After washing with assay buffer (“Roswell Park Memorial Institute 1640” (RPMI 1640)+10 mM HEPES) the dish is fitted into a parallel plate laminar flow chamber (sold from Glycotech, Rockville, Md.) and mounted on an inverted phase-contrast microscope (sold from Olympus, Hamburg, Germany) equipped with a CCD camera (JVC) that is connected to a PC. Employing a peristaltic pump (sold from Ismatec, Wertheim-Mondfeld, Germany) the re-circulating system is equilibrated with assay buffer containing 125 μM compound or vehicle control (DMSO). Cells (1 million/ml) are added to the chamber and allowed to distribute for 2 minutes at a high flow rate. The flow rate is then decreased resulting in a calculated flow shear of 1 dyne/cm^2. Video sequences of 10 low power fields are digitally recorded after 5 minutes continuous flow. The percentage of inhibition is calculated from the mean number of cells per field that attached to the coated dish surface in the presence versus absence of compound […].

[4] = target: T2, human L-Selectin-IgG-chimera (Homo sapiens, UniProt P14151); assay: Sialyl Lewis x Tyrosine Sulfate Assay (sLex TSA), L-selectin; format: binding; settings: for L-Selectin [% Inhib.] / inhibition at 100 µM: compound at 100 μM; for inhibition at 100 µM: read-out: L-Selectin [% Inhib.]
T2 construct: fused on or other part: human IgG Fc part, a tag and dimerising handle that is captured by the goat anti-human Fc antibody on the plate
T2 sequence (P14151 39-318 limits assumed): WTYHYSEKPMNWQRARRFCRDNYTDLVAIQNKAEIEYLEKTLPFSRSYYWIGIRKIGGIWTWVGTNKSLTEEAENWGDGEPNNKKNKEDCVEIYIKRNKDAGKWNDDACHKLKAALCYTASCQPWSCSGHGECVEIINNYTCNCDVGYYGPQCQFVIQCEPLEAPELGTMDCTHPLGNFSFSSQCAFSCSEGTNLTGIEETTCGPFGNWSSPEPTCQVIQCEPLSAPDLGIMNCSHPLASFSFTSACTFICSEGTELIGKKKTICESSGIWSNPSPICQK
Method: as §1, §2

[5] = test system: human P-selectin-IgG chimera; assay: Flow chamber assay, cell adhesion and rolling under flow conditions, P-selectin; format: cell-based; settings: 125 μM compound, flow shear 1 dyne/cm^2
Method: as §3, §4

[6] = target: T3, human E-Selectin-IgG-chimera (Homo sapiens, UniProt P16581); assay: Sialyl Lewis x Tyrosine Sulfate Assay (sLex TSA), E-selectin; format: binding; settings: for E-Selectin [% Inhib.] / inhibition at 100 µM: compound at 100 μM; for inhibition at 100 µM: read-out: E-Selectin [% Inhib.]
T3 construct: fused on or other part: human IgG Fc part, a tag and dimerising handle that is captured by the goat anti-human Fc antibody on the plate
T3 sequence (P16581 22-175 limits assumed): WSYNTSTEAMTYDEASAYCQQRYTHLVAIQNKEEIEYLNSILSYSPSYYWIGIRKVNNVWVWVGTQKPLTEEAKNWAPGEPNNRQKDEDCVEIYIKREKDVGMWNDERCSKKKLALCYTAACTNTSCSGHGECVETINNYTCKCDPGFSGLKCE
Method: as §1, §2

| Compound | [% flux] at pH 4.0 [1] | [% flux] at pH 7.4 [1] | P-Selectin [% Inhib.] [2] | L-Selectin [% Inhib.] [4] | E-Selectin [% Inhib.] [6] | IC50 [2] | inhibition at 100 µM [2] | IC50 [4] | inhibition at 100 µM [4] | IC50 [6] | inhibition at 100 µM [6] | E-Selectin [% Inhib.] of cell attachment [3] | P-Selectin [% Inhib.] of cell attachment [5] |
| --- | --- | --- | --- | --- | --- | --- | --- | --- | --- | --- | --- | --- | --- |
| Cc1cccc(NC(=O)Cc2ccc(O)c(O)c2O)c1 [Compound 122] | 6% | 0% | 81% | 87% | 70% | – | – | – | – | – | – | 27% | 22% |
| Cc1cccc(NC(=O)CCc2ccc(O)c(O)c2O)c1 [Compound 121] | 12% | 12% | 73% | 77% | 29% | – | – | – | – | – | – | 18% | 44% |
| O=C(/C=C/c1ccc(O)c(O)c1O)Nc1cccc(C(=O)O)c1 [Compound 99] | – | – | – | – | – | 14.4 µM | 99% | 24.9 µM | 99% | – | 71% | 28% | 96% |
| O=C(O)Cc1ccc(-c2ccccc2NC(=O)Cc2ccc(O)c(O)c2O)s1 [Compound 41, (5-{2-[2-(2,3,4-Trihydroxyphenyl)-acetylamino]-phenyl}-thiophen-2-yl)acetic acid] | – | – | – | – | – | 7.6 µM | 92% | 14.6 µM | 81% | – | 46% | 26% | – |
| O=C(Cc1ccc(O)c(O)c1O)Nc1cc(Cl)cc(Cl)c1 [Compound 124] | 100% | 0% | – | – | – | – | – | – | – | – | – | 28% | 23% |
| O=C(/C=C/c1ccc(O)c(O)c1O)Nc1ccc(C(=O)O)cc1 [Compound 97] | 0% | 16% | – | – | – | 3.5 µM | 97% | 6.2 µM | 98% | 285 µM | 51% | – | 47% |
| O=C(O)Cc1ccc(-c2ccccc2NC(=O)c2cccc(-c3ccc(O)c(O)c3O)c2)s1 [Compound 48, (5-{2-[(2′,3′,4′-Trihydroxy-biphenyl-3-carbonyl)-amino]-phenyl}-thiophen-2-yl)-acetic acid] | – | – | – | – | – | 5.8 µM | 97% | 9.8 µM | 95% | 132 µM | 31% | 61% | 55% |

Second part, led by results:

| [% flux] at pH 4.0 [1] | [% flux] at pH 7.4 [1] | P-Selectin [% Inhib.] [2] | L-Selectin [% Inhib.] [4] | E-Selectin [% Inhib.] [6] | IC50 [2] | inhibition at 100 µM [2] | IC50 [4] | inhibition at 100 µM [4] | IC50 [6] | inhibition at 100 µM [6] | Compound | E-Selectin [% Inhib.] of cell attachment [3] | P-Selectin [% Inhib.] of cell attachment [5] |
| --- | --- | --- | --- | --- | --- | --- | --- | --- | --- | --- | --- | --- | --- |
| 0% | 1% | – | – | – | 14.8 µM | 79% | 26.2 µM | 66% | 8.7 µM | 53% | O=C(Cc1cc(O)c(O)c(O)c1)NCc1ccc(C(=O)O)cc1 [Compound 118] | 16% | 20% |
| – | – | – | – | – | 34.9 µM | 88% | 30.8 µM | 87% | 8.4 µM | 92% | O=C(CCc1cc(O)c(O)c(O)c1)NCc1ccc(C(=O)O)cc1 [Compound 120] | 21% | 21% |
| – | – | 93% | 95% | 50% | – | – | – | – | – | – | Cc1oc(-c2ccc(NC(=O)Cc3cc(O)c(O)c(O)c3)cc2)cc1C(=O)O [Compound 101] | – | 99% |
| – | – | – | – | – | 2.4 µM | 97% | 3.1 µM | 96% | 3.3 µM | 99% | O=C(O)Cc1ccc(-c2ccccc2NC(=O)CCc2cc(O)c(O)c(O)c2)s1 [Compound 102] | 35% | 11% |
| 27% | 0% | – | – | – | – | – | – | – | – | – | O=C(Cc1cc(O)c(O)c(O)c1)Nc1cccc(C(F)(F)F)c1 [Compound 123] | 51% | – |
